Consider one compound from patent publication US8546079B2, “Reporter gene construct, assay kit and detection method” (Kabushiki Kaisha Toshiba, priority 2010, dated 2013).

The experiment relates to enhancer region of cytochrome 1A1 gene. Kind of experiment: Detection of nitrogen monoxide (NO.) having responded to carcinogenicity by iNOS vector pXRE-SV40-NOS2 (DAF2-DA fluorescence). The settings on record: Neuro2a transfected with pXRE-SV40-NOS2; 1.0 μM, 24 hours; compared with DMSO; inverted fluorescence microscope (FIG. 3A, 3B). The experiment is classed as cell-based, mouse. From the text: An enhancer region responsive to a carcinogenic substance was incorporated in the iNOS vector: pSV40-NOS2. The enhancer region of cytochrome 1A1 gene responsive to a carcinogenic substance (benzopyrene) (SEQ ID NO: 4) was amplified by PCR from a mouse genome. The 5′ terminal of the amplified enhancer region was phosphorylated with T4 polynucleotide kinase, and ligated using T4 ligase to pSV40-NOS2 having been digested with restriction enzyme Sma I and having its 5′ terminal dephosphorylated with alkali phosphatase, thereby obtaining pXRE-SV40-NOS2 (FIG. 2). Using this vector, the correlation of the activation of the enhancer region by a carcinogenic substance with the amount of nitrogen monoxide (NO.) synthesized by iNOS was studied.
Mouse neuroblastoma Neuro2a (American Type Cell Culture) was seeded on a 24-well plate at a density of 8.0×10^4 cells/well, and using DMEM/F12 medium (DF1:1 medium) supplemented with 10% fetal calf serum (FCS), cultured overnight in a 5% CO2 atmosphere at 37° C. […] Two hours later, the cells were washed with phosphate buffer (PBS) twice, and the fluorescence by the reaction product of DAF-2DA and nitrogen monoxide (NO.) (DAF-2T, excitation wavelength: 495 nm, fluorescence wavelength: 515 nm) was observed by means of an inverted fluorescence microscope.

On to `c1ccc2c(c1)c1cccc3ccc4cccc2c4c31` [benzopyrene], for which the “fluorescence by the reaction product of DAF-2DA and nitrogen monoxide (NO.)” value is recorded as “induction of fluorescence”.
